Assay results published in ChEMBL document CHEMBL1148352, “1,2,4-triazolo[4,3-a]quinoxalin-1-one moiety as an attractive scaffold to develop new potent and selective human A3 adenosine receptor antagonists: synthesis, pharmacological, and ligand-receptor modeling studies” (J Med Chem, 2004).

Key:
[1] = target: T1, Adenosine receptor A3 (Homo sapiens) (UniProt P0DMS8); test: Percent inhibition against human adenosine A3 receptor expressed in CHO cells using [125I]AB-MECA at 1 uM; format: cell-based
T1 sequence (whole entry): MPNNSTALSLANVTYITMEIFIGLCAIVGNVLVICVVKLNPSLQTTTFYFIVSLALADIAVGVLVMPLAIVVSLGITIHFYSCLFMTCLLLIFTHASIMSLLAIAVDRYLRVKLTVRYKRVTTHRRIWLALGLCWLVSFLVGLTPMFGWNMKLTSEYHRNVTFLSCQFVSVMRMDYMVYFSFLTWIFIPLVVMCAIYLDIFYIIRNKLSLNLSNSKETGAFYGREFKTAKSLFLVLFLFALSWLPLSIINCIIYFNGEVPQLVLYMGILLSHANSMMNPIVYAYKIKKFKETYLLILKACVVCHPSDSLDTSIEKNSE

[2] = target: T2, Adenosine receptor A1 (Bos taurus, UniProt P28190)
T2 sequence (P28190 whole entry): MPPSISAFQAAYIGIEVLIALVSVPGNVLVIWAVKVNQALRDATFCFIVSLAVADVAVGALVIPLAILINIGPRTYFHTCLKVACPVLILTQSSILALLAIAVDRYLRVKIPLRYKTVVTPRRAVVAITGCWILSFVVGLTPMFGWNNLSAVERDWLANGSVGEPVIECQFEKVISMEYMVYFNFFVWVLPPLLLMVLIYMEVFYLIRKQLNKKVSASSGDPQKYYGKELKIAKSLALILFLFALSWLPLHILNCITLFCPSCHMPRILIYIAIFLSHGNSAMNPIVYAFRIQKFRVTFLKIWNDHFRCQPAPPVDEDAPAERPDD
Description: Binding affinity against adenosine A1 receptor in bovine brain membranes by [3H]CHA displacement.

[3] = system: Adenosine receptor A2a (Bos taurus); test: Inhibition of [3H]-CGS- 21680 binding to adenosine A2a receptor of bovine striatal membranes
[4] = target: Adenosine receptor A2a (Bos taurus)
[5] = target: T3, Adenosine receptor A3 (Homo sapiens, UniProt P0DMS8); test: biochemical
T3 sequence (P0DMS8 whole entry): T1 sequence (whole entry)
Description: Binding affinity against human adenosine A3 receptor expressed in CHO cells by [125I]AB-MECA displacement.

[6] = target: T4, Adenosine receptor A1 (Homo sapiens, UniProt P30542); test: biochemical
T4 sequence (P30542 whole entry): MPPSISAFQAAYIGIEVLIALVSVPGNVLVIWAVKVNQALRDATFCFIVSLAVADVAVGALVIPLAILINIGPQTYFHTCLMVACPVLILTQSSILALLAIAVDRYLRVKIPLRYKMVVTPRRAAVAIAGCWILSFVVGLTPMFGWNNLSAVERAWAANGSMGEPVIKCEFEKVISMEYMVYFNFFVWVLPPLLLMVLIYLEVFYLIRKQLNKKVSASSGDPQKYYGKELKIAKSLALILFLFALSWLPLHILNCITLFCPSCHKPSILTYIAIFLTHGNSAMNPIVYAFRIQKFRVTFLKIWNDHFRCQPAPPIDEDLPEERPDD
Description: Binding affinity against human adenosine A1 receptor expressed in CHO cells using [3H]CHA

[7] = target: T3, Adenosine receptor A3; test: Effective concentration for inhibition of NECA-stimulated [35S]GTP-gamma-S, binding at human adenosine A3 receptor expressed in CHO cells; format: functional, cell-based
[8] = target: T5, Adenosine receptor A1 (Bos taurus) (UniProt P28190); test: Inhibition of [3H]CHA binding to adenosine A1 receptor of bovine brain membranes; format: cell membranes
T5 sequence (whole entry): T2 sequence (P28190 whole entry)

[9] = target: Adenosine receptors; A1 & A3 (Homo sapiens) (UniProt P30542+P0DMS8); test: Selectivity as ratio of affinity against human adenosine A3 and A1 receptors; format: protein assay
[10] = target: Adenosine receptors; A2a & A3 (Homo sapiens) (UniProt P0DMS8+P29274); test: Selectivity as ratio of affinity against human adenosine A3 and A2A receptors; format: protein assay
[11] = target: T6, Adenosine receptor A1 (Homo sapiens) (UniProt P30542); test: Percent inhibition against human adenosine A1 receptor expressed in CHO cells using [3H]CHA at 10 uM; format: cell-based
T6 sequence (whole entry): T4 sequence (P30542 whole entry)

Chain of Adenosine receptors; A2a & A3 (Homo sapiens) (P29274 whole entry, looked up, one chain of several): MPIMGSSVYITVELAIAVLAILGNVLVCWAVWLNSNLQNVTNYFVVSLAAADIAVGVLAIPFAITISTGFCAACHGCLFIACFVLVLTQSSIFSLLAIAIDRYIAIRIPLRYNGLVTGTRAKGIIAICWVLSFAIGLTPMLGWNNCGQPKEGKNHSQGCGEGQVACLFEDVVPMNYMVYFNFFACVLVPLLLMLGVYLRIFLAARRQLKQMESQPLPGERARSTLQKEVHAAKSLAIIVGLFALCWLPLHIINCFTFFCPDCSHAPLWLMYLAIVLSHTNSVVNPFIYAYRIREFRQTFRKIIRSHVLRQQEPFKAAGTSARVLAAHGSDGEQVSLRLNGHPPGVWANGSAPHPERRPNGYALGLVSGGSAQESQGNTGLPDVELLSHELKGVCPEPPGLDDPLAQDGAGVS

Ki [2] [nM]	I [3] [%]	Ki [5] [nM]	I [8] [%]	Structure (SMILES)	also measured
91	0			O=c1[nH]c2c([N+](=O)[O-])cccc2n2c(=O)n(-c3ccc([N+](=O)[O-])cc3)nc12	I [1]: 24%
61		176		Nc1cccc2c1nc(N)c1nn(-c3ccc(O)cc3)c(=O)n12	Ki [4]: 181 nM
26		11.2		CC(=O)Oc1ccc(-n2nc3c(=O)[nH]c4ccccc4n3c2=O)cc1	Ki [4]: 9700 nM; Ki [6]: 320 nM
	21	0.6	19	O=c1[nH]c2ccccc2n2c(=O)n(-c3ccc([N+](=O)[O-])cc3)nc12	EC50 [7]: 5.4 nM; Selectivity ratio [9]: > 16600; Selectivity ratio [10]: > 16600; I [11]: 32%
155	2.7			Nc1nc2c([N+](=O)[O-])cccc2n2c(=O)n(-c3ccc([N+](=O)[O-])cc3)nc12	I [1]: 30%
				COc1ccc(-n2nc3c(=O)[nH]c4ccccc4n3c2=O)cc1	I [11]: 42%
82		4.75		Nc1nc2c([N+](=O)[O-])cccc2n2c(=O)n(-c3ccccc3)nc12	Ki [6]: 870 nM
	0		21.3	CC(=O)Oc1ccc(-n2nc3c(=O)[nH]c4c([N+](=O)[O-])cccc4n3c2=O)cc1	I [1]: 20%
578	0	429		CN(C)c1ccc(-n2nc3c(=O)[nH]c4ccccc4n3c2=O)cc1	
				COc1ccc(-n2nc3c(N)nc4ccccc4n3c2=O)cc1	Ki [6]: 69 nM
	31		11.9	Nc1nc2ccccc2n2c(=O)n(-c3ccc([N+](=O)[O-])cc3)nc12	I [1]: 28%
30.6		47		O=c1[nH]c2ccccc2n2c(=O)n(-c3ccc(O)cc3)nc12	Ki [6]: 168 nM
	4		38	O=c1[nH]c2c([N+](=O)[O-])cccc2n2c(=O)n(-c3ccc(O)cc3)nc12	I [1]: 21%
	14		25	COc1ccc(-n2nc3c(=O)[nH]c4c([N+](=O)[O-])cccc4n3c2=O)cc1	I [11]: 0%
	23	83	16	COc1ccc(-n2nc3c(=O)[nH]c4c(N)cccc4n3c2=O)cc1	
537		203		CCOc1ccc(-n2nc3c(N)nc4ccccc4n3c2=O)cc1	Ki [4]: 13000 nM
		22	38	COc1ccc(-n2nc3c(N)nc4c(N)cccc4n3c2=O)cc1	Ki [4]: 1050 nM; Ki [6]: 186 nM
996	36			Nc1cccc2c1[nH]c(=O)c1nn(-c3ccc(O)cc3)c(=O)n12	I [1]: 39%
116		73.2		Nc1nc2ccccc2n2c(=O)n(-c3ccc(O)cc3)nc12	Ki [4]: 80 nM
		175		CCOc1ccc(-n2nc3c(=O)[nH]c4ccccc4n3c2=O)cc1	
		3600		Nc1ccc(-n2nc3c(=O)[nH]c4ccccc4n3c2=O)cc1	
446				Nc1nc2c([N+](=O)[O-])cccc2n2c(=O)n(-c3ccc(O)cc3)nc12	Ki [4]: 1600 nM; I [1]: 45%
	16.5	47	19	COc1ccc(-n2nc3c(N)nc4c([N+](=O)[O-])cccc4n3c2=O)cc1	I [11]: 45%

Structure (SMILES)	Ki [2] [nM]	I [3] [%]	Ki [5] [nM]	I [8] [%]	also measured
Nc1ccc(-n2nc3c(N)nc4ccccc4n3c2=O)cc1	48		335		Ki [4]: 3.6 nM
